According to patent US4540691A, “Dopamine agonists and use thereof” (Nelson Research & Development Co., priority 1984, dated 1985):
pIC50: −log10 of the molar value. Entries after “also recorded” stand apart in the source; their conditions may differ.

Legend:
[1] = tested on: dopamine receptor; test: Dopamine receptor agonist activity, overall conclusion from various tests; details: pre- and post-synaptic dopaminergic tests
Protocol: The dopaminergic activity of three analogues (A,B,C) was evaluated in comparison with the indolic structural analogue RU 29717 (Nedelec et al., 1983, J. Med. Chem., 26, 522) in three test systems. Compounds B and C are within the scope of the present invention.

[2] = tested on: presynaptic dopamine receptors; test: Presynaptic DA activity in the GBL model: counteracting GBL-induced rise in striatal DOPA levels; assay type: in vivo, rat; details: for % Reversal vs. GBL group / DOPA (striatal level): 0.2 μmol/kg; for % Reversal vs. GBL group: GBL + NSD 1015 group = 0, NSD 1015 group = 100; for DOPA (striatal level): GBL model, NSD 1015 as decarboxylase inhibitor
Protocol: The ability of a dopamine agonist to counteract the gamma-butyrolactone (GBL) induced rise in DOPA levels in the rat striatum is an indication of its activity at presynaptic dopamine receptors. (Walters and Roth, 1976 Arch. Pharmacol., 296, 5).
The experiments were performed in rats according to the method of Walters and Roth (ibid). The striatal levels of DOPA were determined using the method of Westerink and Mulder (1981 J. Neurochem. 36, 1449). NSD 1015 was used as decarboxylase inhibitor.

[3] = tested on: homovanillic acid, HVA (corpus striatum); test: Effect on dopamine metabolism: lowering of striatal HVA levels; assay type: in vivo, Female Wistar rats; details: for HVA % control / HVA content of corpus striatum: injected, 60 min, mean ± S.E.M.
Protocol: Dopamine agonists are known to produce a lowering of the striatal levels of one of the main metabolites of dopamine, homovanillic acid, HVA, (Feenstra et al., 1983 Arch. Pharmacol., 324, 108).
Female Wistar rats (160-180g) were injected with the drugs under test dissolved in saline and were then decapitated 60 min later. The HVA content of the corpus striatum was determined according to the method of Westerink and Mulder (J. Neurochem., 1981 36, 1449).

[4] = tested on: DA receptor; test: Radioligand binding assay: displacement of ^3 H-5,6-dihydroxy-N,N-dipropyl-2-aminotetralin (DA receptor agonist) from homogenates of rat corpus striatum; details: for pIC50: mean of 3 independent experiments each in triplicate, 10^-11 to 10^-5 M, read-out: IC50 (concentration of drug required to inhibit the specific binding by 50%)
Protocol: The ability of the above compounds to displace the specific binding of ^3 H-5,6-dihydroxy-N,N-dipropyl-2-aminotetralin, a potent DA receptor agonist (Feenstra et al., Life Sci., 32, 1313 (1983)) to homogenates of rat corpus striatum was studied.
The assay was performed essentially according to the method of Leysen and Gommeran J. Neurochem. 36, 201 (1981) for ^3 H-apomorphine binding.
The IC50 is the concentration of drug required to inhibit the specific binding by 50%. The results are presented as the mean values of 3 independent experiments each analyzed in triplicate over the concentration range 10^-11 to 10^-5 M.

[5] = tested on: adrenergic and serotonergic; details: literature background; cited from earlier work
[6] = tested on: dopaminergic; details: literature background; cited from earlier work
[7] = literature background; cited from earlier work

| Structure (SMILES) | dopamine agonist activity (general conclusion in words) [1] | % Reversal vs. GBL group [2] [%] | DOPA (striatal level) [2] [µg/g] | HVA % control ([3]; 0.4 μmol/kg) [% control] | HVA content of corpus striatum ([3]; 0.4 μmol/kg) [µg/g] | potency in binding assay (conclusion in words) [4] | pIC50 [4] | potency in GBL model (conclusion in words) ([2]; conclusion) | HVA % control ([3]; 0.2 μmol/kg) [% control] | HVA content of corpus striatum ([3]; 0.2 μmol/kg) [µg/g] | activity on HVA levels (conclusion in words) ([3]; conclusion) | adrenergic and serotonergic activity (in words) [5] | dopaminergic agonist activity (in words) [6] | emetic activity (in words) [7] |
| --- | --- | --- | --- | --- | --- | --- | --- | --- | --- | --- | --- | --- | --- | --- |
| CCCN1CCOC2c3ccccc3CCC21 (centres unmarked) [Compound A] | significantly less active | 4.5 | 5.25 ± 0.09 | 91.8 ± 2.0 | 0.90 ± 0.02 | the least potent | 6.96 |  |  |  |  |  |  |  |
| CCCN1CCOC2c3cc(O)ccc3CCC21 (centres unmarked) [Compound C] | useful levels of dopamine agonist activity; also recorded: as active as the known DA agonist RU 29717 | 94.6 | 2.08 ± 0.12 | 48.0 ± 1.0 | 0.47 ± 0.01 |  | 8.55 | slightly more potent than RU 29717 | 63.3 ± 4.1 | 0.62 ± 0.04 | comparable in activity to RU 29717 |  |  |  |
| CN1CCc2cccc3c2[C@H]1Cc1ccc(O)c(O)c1-3 [Apomorphine, reference compound] |  |  |  |  |  |  | 8.49 |  |  |  |  |  |  |  |
| CCCN1CCOC2c3cccc(O)c3CCC21 (centres unmarked) [Compound B] | useful levels of dopamine agonist activity | 17.3 | 4.80 ± 0.37 | 98.0 ± 12.2 | 0.96 ± 0.12 | some activity | 7.10 |  |  |  |  |  |  |  |
| CCCN1CCO[C@@H]2c3cccc4[nH]cc(c34)C[C@H]21 [RU 29717, N-PROPYL-9-OXAERGOLINE, reference compound] |  | 88.4 | 2.30 ± 0.16 | 46.9 ± 2.0 | 0.46 ± 0.02 |  | 8.52 |  | 51.0 ± 4.1 | 0.50 ± 0.04 |  | has adrenergic and serotonergic activity | extremely potent direct acting dopaminergic agonist, comparing favorably with pergolide | Its activity as an emetic is a significant problem |
